Source: US20130281638A1, “TRICYCLO COMPOUND-POLYMER CONJUGATE” (SUCAMPO AG, priority 2012, published 2013)

What was measured:
[1] = Storage stability of Tacrolimus MPEG-hexPLA micelle formulations at 4° C.; format: physicochemical; conditions: stored at 4° C.
Excerpt: The non-incorporated active compound can be removed by a simple filtration.

[2] = Incorporation of Tacrolimus into MPEG-hexPLA polymer micelles; format: physicochemical; conditions: loadings up to 300 mg Tacrolimus per gram MPEGhexPLA; aqueous micelle solution, acetone/water sonication protocol
Description: Objective is the evaluation of the methoxypoly(ethylene glycol)-hexyl-substituted poly(lactic acid) [MPEG-hexPLA] polymer micelles' potential to incorporate and solubilize Tacrolimus.
The incorporation studies were carried out by a standard formulation protocol. Briefly, a defined amount of Tacrolimus was dissolved in acetone and added dropwise under sonication into water, followed by evaporation of the organic solvent and equilibration of the micelle solution overnight.
As it can be seen, for loadings up to 300 mg Tacrolimus per gram MPEGhexPLA, loading efficiencies higher than 70% could be obtained by this simple procedure. FIG. 2 presents the corresponding concentrations of Tacrolimus in the aqueous solution. It has to be noted, that these solutions can be further concentrated by simple evaporation to obtain higher drug concentrations, and keeping the transparency of the solutions.

[3] = cited from earlier work

stability on storage ([1]; formulation with a target of 150 mg/g): best stable formulation
stability on storage (precipitation) ([1]; higher (than 150 mg/g target) and possibly oversaturated formulations): slight drug precipitation
loading efficiencies [2]: higher than 70%
SMILES: C=CCC1/C=C(\C)CC(C)CC(OC)C2OC(O)(C(=O)C(=O)N3CCCCC3C(=O)OC(/C(C)=C/C3CCC(O)C(OC)C3)C(C)C(O)CC1=O)C(C)CC2OC (stereo not shown) [Tacrolimus, 17-allyl-1,14-dihydroxy-12-[2-(4-hydroxy-3-methoxycyclohexyl)-1-methylvinyl]-23,25-dimethoxy-13,19,21,27-tetramethyl-11,28-dioxa-4-azatricyclo[22.3.1.0^4,9]octacos-18-ene-2,3,10,16-tetraone]
water solubility [3]: poorly water-soluble
